Key:
PI3Kα H1047R = target: T1, PI3Kα H1047R (Homo sapiens, UniProt P42336, H1047R); test: PI3Kα H1047R mutant in vitro cell based assay, MDA-MB-453 cells (AlphaLisa SureFire); details: MDA-MB-453 cell line, 0% FBS, 3 hours treatment
T1 construct: The MDA-MB-453 (ATCC-HTB-131) cell line (PI3Kα H1047R); host or cells: MDA-MB-453
Source text: (§1) PI3K-Alpha Kinase (PI3Kα) Activity: Wild-Type PI3Kα, H1047R Mutant PI3Kα, and E545K Mutant PI3Kα In Vitro Cell Based Assays and Determination of IC50 Values for Inhibitors
(§2) The MDA-MB-453 (ATCC-HTB-131) cell line (PI3Kα H1047R) and MCF-7 (ATCC-HTB-22) cell line (PI3Kα E545K), MDA-MB-361 (ATCC-HTB-27) cell line (PI3Kα E545K), and SKBR3 (ATCC-HTB-30) cell line (wild type PI3Kα) were obtained from the American Type Culture Collection (Manassas, VA). MDA-MB-453 cells were maintained in Dulbecco's Modified Eagle Media (DMEM, Gibco 12430) supplemented with 10% Fetal Bovine Serum, heat inactivated (FBS HI, Gibco 10082), 1× non-essential amino acids (NEAA, Gibco 11140), 1 mM sodium pyruvate (Gibco 11360) and 1× Anti-Anti (Gibco 15240). MCF-7 cells were maintained in Minimum Essential Media (MEM) (Gibco 11095) supplemented with 10% Fetal Bovine Serum, heat inactivated (FBS HI, Gibco 10082), 1× non-essential amino acids (NEAA, Gibco 11140), 1 mM sodium pyruvate (Gibco 11360), 1× Anti-Anti (Gibco 15240) and 10 μg/mL human insulin (Sigma I 9278). MDA-MB-361 cells were maintained in Dulbecco's Modified Eagle Media (DMEM, Gibco 12430) supplemented with 20% Fetal Bovine Serum, heat inactivated (FBS HI, Gibco 10082), 1× non-essential amino acids (NEAA, Gibco 11140), 1 mM sodium pyruvate (Gibco 11360) and 1× Anti-Anti (Gibco 15240). SKBR3 cells were maintained in McCoy's 5A (Gibco 16600) supplemented with 10% Fetal Bovine Serum, heat inactivated (FBS HI, Gibco 10082), and 1× Anti-Anti (Gibco 15240). Cultures were maintained in a humidified incubator at 37° C. under 5% CO2/95% air.
(§3) For compound testing in 0% FBS, MDA-MB-453, MCF-7 and SKBR3 cells were seeded at a density of 1.5×10^4, 1.0×10^4, and 1.0×10^4 cells, respectively, per well in white 384-well plates in 20 μl of Minimum Essential Media (MEM) assay media with 1×NEAA, 1 mM sodium pyruvate, and 1 μg/mL human insulin (Sigma 19278) (Assay Medium); while MDA-MB-361 cells were seeded at a density of 1.5×10^4 per well in white 384-well plates in 20 μl Assay Medium without insulin. After plating, cells were allowed to attach overnight. Compounds dissolved in 10 mM stock solutions in DMSO were serially diluted 1:3 in DMSO to generate a 10-point dilution series and plated using an acoustic liquid handler system (Echo 550 Series Liquid Handler, Labcyte). A 5× intermediate compound dilution plate in MEM with 1×NEAA and 1 mM sodium pyruvate (150 μM starting compound concentration in 1.5% DMSO) was then prepared. Five μl of the intermediate serially diluted compounds were added to the cell plate to final concentrations ranging from […] in 0.3% DMSO. 0.3% DMSO alone was used to establish the maximum (MAX) signal and GDC-0032 at a final concentration of 1 μM was used as a reference compound for the minimum (MIN) signal. After 3 hours treatment, the medium was removed, and the cells were lysed in 10 μL of 1× SureFire Lysis buffer with shaking for 10 minutes at room temperature. The Acceptor Mix (Reaction Buffer 1+Reaction Buffer 2+Activation Buffer+SureFire Ultra Acceptor Beads) was prepared by diluting Activation buffer 25-fold in combined Reaction Buffer 1 and Reaction Buffer 2.
(§4) The Acceptor beads were diluted 50-fold in the combined Reaction Buffers. Five μL of Acceptor Mix was added to each well, the plate was sealed and covered with foil and incubated for 1 hour at room temperature. The Donor Mix (dilution buffer+SureFire Ultra Donor Beads) was prepared by diluting Donor Beads 50-fold in dilution buffer. Five μL of the Donor Mix was added to each well and the plate sealed and covered with foil and incubated for 1-2 hours at room temperature in the dark. The plates were read on a Neo2 plate reader instrument from Biotek using standard AlphaLisa settings.
(§5) Compounds were tested in duplicate and the % inhibition at each compound concentration was used to generate two dose response curves. One IC50 was generated using average % inhibition at each compound concentration. […]

PI3Kα E545K [1] = target: T2, PI3Kα E545K (Homo sapiens, UniProt P42336, E545K); test: PI3Kα E545K mutant in vitro cell based assay, MDA-MB-361 cells; design: MDA-MB-361 (ATCC-HTB-27) cell line (PI3Kα E545K); host or cells: MDA-MB-361; details: MDA-MB-361 cell line, 0% FBS, no insulin, 3 hours treatment
Procedure, shortened: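 MDA-MB-361 cells (PI3Kα E545K) seeded in serum-free MEM assay medium without insulin, attached overnight, then treated 3 h with compound (10-point 1:3 series, 0.3% DMSO). AlphaLISA SureFire readout of lysates. IC50 by 4-parameter fit, normalized to DMSO (max) and 1 μM GDC-0032 (min).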

PI3Kα E545K [2] = target: T2, PI3Kα E545K; test: PI3Kα E545K mutant in vitro cell based assay, MCF-7 cells; details: MCF-7 cell line, 0% FBS, 3 hours treatment
Source text: as §1, §2, §3, §4, §5

[3] = Metabolic stability and intrinsic clearance in human liver microsomes (MICS); format: in vitro ADME; details: human, microsomes, pH 7.4
Procedure, shortened: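 Test compound (1 μM final) incubated at 37° C with liver microsomes (0.5 mg/mL protein) in 100 mM phosphate buffer pH 7.4, with 1 mM NADPH or without cofactor; sampled at 0.5–60 min, quenched with cold acetonitrile. Parent remaining quantified by LC-MS/MS; t1/2 from ln-% remaining slope converted to CLint (μL/min/mg protein).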

T2 sequence (P42336 whole entry E545K): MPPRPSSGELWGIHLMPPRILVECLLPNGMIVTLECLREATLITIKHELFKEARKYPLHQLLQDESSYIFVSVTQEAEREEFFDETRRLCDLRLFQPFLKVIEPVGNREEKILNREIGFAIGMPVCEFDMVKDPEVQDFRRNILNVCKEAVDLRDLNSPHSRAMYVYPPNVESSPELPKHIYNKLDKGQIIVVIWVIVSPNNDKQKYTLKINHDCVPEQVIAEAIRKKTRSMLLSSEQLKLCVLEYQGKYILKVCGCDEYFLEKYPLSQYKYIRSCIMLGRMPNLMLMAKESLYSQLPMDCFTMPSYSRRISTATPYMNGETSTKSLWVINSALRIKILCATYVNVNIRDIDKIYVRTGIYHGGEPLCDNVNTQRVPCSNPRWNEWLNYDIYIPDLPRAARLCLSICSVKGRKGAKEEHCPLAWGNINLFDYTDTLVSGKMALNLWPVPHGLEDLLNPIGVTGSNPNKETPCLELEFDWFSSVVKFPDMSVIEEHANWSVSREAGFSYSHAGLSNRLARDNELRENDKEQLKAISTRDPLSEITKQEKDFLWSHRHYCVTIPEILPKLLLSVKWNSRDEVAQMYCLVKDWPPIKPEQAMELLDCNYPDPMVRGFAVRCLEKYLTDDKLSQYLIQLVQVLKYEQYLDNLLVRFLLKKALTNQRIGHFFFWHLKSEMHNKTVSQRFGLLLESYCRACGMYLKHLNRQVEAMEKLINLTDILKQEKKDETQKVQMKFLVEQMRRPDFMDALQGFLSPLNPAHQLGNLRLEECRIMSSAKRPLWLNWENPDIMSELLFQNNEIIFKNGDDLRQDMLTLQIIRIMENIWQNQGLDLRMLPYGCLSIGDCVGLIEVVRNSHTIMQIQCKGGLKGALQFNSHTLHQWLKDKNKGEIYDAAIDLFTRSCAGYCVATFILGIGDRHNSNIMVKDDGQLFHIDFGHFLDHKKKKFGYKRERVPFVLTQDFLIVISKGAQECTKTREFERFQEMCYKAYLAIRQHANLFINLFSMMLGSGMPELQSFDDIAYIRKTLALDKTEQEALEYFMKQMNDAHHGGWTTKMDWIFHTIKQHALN
T2 sequence (P27986 whole entry partner): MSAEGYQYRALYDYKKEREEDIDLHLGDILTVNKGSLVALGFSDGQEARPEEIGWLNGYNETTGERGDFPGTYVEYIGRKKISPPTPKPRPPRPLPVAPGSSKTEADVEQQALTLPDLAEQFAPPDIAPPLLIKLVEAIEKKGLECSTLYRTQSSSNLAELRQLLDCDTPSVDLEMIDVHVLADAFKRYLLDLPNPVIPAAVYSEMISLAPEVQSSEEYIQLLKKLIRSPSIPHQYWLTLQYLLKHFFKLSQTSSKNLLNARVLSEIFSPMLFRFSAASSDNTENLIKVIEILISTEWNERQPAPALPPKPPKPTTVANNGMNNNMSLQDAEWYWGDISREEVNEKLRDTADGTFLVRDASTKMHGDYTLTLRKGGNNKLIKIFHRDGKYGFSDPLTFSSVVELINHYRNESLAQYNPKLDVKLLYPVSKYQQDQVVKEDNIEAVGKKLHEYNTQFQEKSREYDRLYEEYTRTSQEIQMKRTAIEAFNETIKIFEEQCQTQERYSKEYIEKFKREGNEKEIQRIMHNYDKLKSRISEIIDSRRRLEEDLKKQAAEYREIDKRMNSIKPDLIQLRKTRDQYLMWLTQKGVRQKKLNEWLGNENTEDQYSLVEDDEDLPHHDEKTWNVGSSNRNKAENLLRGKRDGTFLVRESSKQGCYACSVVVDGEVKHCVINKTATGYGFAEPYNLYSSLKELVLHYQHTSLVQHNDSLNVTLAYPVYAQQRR
T1 sequence (P42336 whole entry H1047R): as the sequence (P42336 whole entry E545K) above, with K545E, H1047R counted along it
T1 sequence (P27986 whole entry partner): as the sequence (P27986 whole entry partner) above

IC50 (PI3Kα H1047R) [nM]	IC50 (PI3Kα E545K [1]) [nM]	IC50 (PI3Kα E545K [2]) [nM]	microsomal CLint at 1 μM [3] [µL/min/mg]	SMILES
< 100	< 500	–	–	Cc1cc([C@@H](C)Oc2ccc(Cl)nc2S(N)(=O)=O)c2oc(-c3cnn4c3OCC4)c(C)c(=O)c2c1 [Example 85C, 6-Chloro-3-[(1R)-1-[2-(2,3-dihydropyrazolo[5,1-b]oxazol-7-yl)-3,6-dimethyl-4-oxo-chromen-8-yl]ethoxy]pyridine-2-sulfonamide]
< 100	< 500	–	–	Cc1cc([C@@H](C)Oc2ccc(Cl)nc2-c2noc(=O)[nH]2)c2oc(-c3ccc4c(c3)OCCN4C)c(C)c(=O)c2c1 [Example 48A, 3-[6-Chloro-3-[(1R)-1-[3,6-dimethyl-2-(4-methyl-2,3-dihydro-1,4-benzoxazin-7-yl)-4-oxo-chromen-8-yl]ethoxy]-2-pyridyl]-4H-1,2,4-oxadiazol-5-one]
< 100	< 500	–	–	Cc1cc([C@@H](C)Oc2ccc(Cl)nc2C(N)=O)c2oc(-c3cc(F)c4nc(C)cn4c3)c(C)c(=O)c2c1 [Example 38C]
< 100	< 500	–	–	CONC(=O)c1nc(Cl)ccc1O[C@H](C)c1cc(C)cc2c(=O)c(C)c(-c3ccc4nc(C)sc4c3)oc12 [Example 69C, 6-Chloro-3-[(1R)-1-[3,6-dimethyl-2-(2-methyl-1,3-benzothiazol-6-yl)-4-oxo-chromen-8-yl]ethoxy]-N-methoxy-pyridine-2-carboxamide]
< 100	–	–	–	Cc1cc([C@@H](C)Oc2ccc(Cl)nc2-c2noc(=O)[nH]2)c2oc(-c3cnc4c(c3)OCCN4C)c(C)c(=O)c2c1 [Example 49A, 3-[6-Chloro-3-[(1R)-1-[3,6-dimethyl-2-(4-methyl-2,3-dihydropyrido[3,2-b][1,4]oxazin-7-yl)-4-oxo-chromen-8-yl]ethoxy]-2-pyridyl]-4H-1,2,4-oxadiazol-5-lone]
–	< 500	< 500	< 50	Cc1cc([C@@H](C)Oc2ccc(F)c(F)c2S(N)(=O)=O)c2oc(-c3cnn(C)c3)c(C)c(=O)c2c1 [Example 110C, 6-[(1R)-1-[3,6-Dimethyl-2-(1-methylpyrazol-4-yl)-4-oxo-chromen-8-yl]ethoxy]-2,3-difluoro-benzenesulfonamide]
< 100	–	–	–	Cc1cc([C@@H](C)Oc2ccc(Cl)nc2S(N)(=O)=O)c2oc(-c3ccc4nn(CCO)cc4c3)c(C)c(=O)c2c1 [Example 88C, 6-Chloro-3-[(1R)-1-[2-[2-(2-hydroxyethyl)indazol-5-yl]-3,6-dimethyl-4-oxo-chromen-8-yl]ethoxy]pyridine-2-sulfonamide]
< 100	–	–	–	Cc1cc([C@@H](C)Oc2ccc(Cl)nc2C(N)=O)c2oc(-c3cnn4c3OCCC4)c(C)c(=O)c2c1 [Example 108A, 6-Chloro-3-[(1R)-1-[2-(6,7-dihydro-5H-pyrazolo[5,1-b][1,3]oxazin-3-yl)-3,6-dimethyl-4-oxo-chromen-8-yl]ethoxy]pyridine-2-carboxamide]
< 100	–	–	–	Cc1cc([C@@H](C)Oc2cccnc2S(N)(=O)=O)c2oc(-c3cnn4c3OCC4)c(C)c(=O)c2c1 [Example 95C, 3-[(1R)-1-[2-(2,3-Dihydropyrazolo[5,1-b]oxazol-7-yl)-3,6-dimethyl-4-oxo-chromen-8-yl]ethoxy]pyridine-2-sulfonamide]
–	< 500	< 500	< 50	Cc1cc([C@@H](C)Oc2ccc(Cl)nc2S(N)(=O)=O)c2oc(-c3cn[nH]c3)c(C)c(=O)c2c1 [Example 115C, 6-Chloro-3-[(1R)-1-[3,6-dimethyl-4-oxo-2-(1H-pyrazol-4-yl)chromen-8-yl]ethoxy]pyridine-2-sulfonamide]

Second part, the compound before the results:

SMILES	IC50 (PI3Kα H1047R) [nM]	IC50 (PI3Kα E545K [1]) [nM]	IC50 (PI3Kα E545K [2]) [nM]	microsomal CLint at 1 μM [3] [µL/min/mg]
Cc1cc([C@@H](C)Oc2ccc(Cl)nc2C(N)=O)c2oc(-c3cnn4c3OCC4)c(C)c(=O)c2c1 [Example 36C, 6-Chloro-3-[(1R)-1-[2-(2,3-dihydropyrazolo[5,1-b]oxazol-7-yl)-3,6-dimethyl-4-oxo-chromen-8-yl]ethoxy]pyridine-2-carboxamide]	< 100	< 500	–	–
CCS(=O)(=O)c1ccc(-c2oc3c([C@@H](C)Oc4ccc(Cl)nc4S(N)(=O)=O)cc(C)cc3c(=O)c2C)cc1 [Example 33C, 6-Chloro-3-[(1R)-1-[2-(4-ethylsulfonylphenyl)-3,6-dimethyl-4-oxo-chromen-8-yl]ethoxy]pyridine-2-sulfonamide]	< 100	–	–	–
CONS(=O)(=O)c1nc(Cl)ccc1O[C@H](C)c1cc(C)cc2c(=O)c(C)c(-c3ccccc3)oc12 [Example 32A, 6-Chloro-3-[(1R)-1-(3,6-dimethyl-4-oxo-2-phenyl-chromen-8-yl)ethoxy]-N-methoxy-pyridine-2-sulfonamide]	< 100	–	–	–
Cc1cc([C@@H](C)Oc2ccc(Cl)nc2S(N)(=O)=O)c2oc(-c3cnc4nonc4c3)c(C)c(=O)c2c1 [Example 30C, 6-Chloro-3-[(1R)-1-[3,6-dimethyl-2-([1,2,5]oxadiazolo[3,4-b]pyridin-6-yl)-4-oxo-chromen-8-yl]ethoxy]pyridine-2-sulfonamide]	< 100	–	–	–
CONC(=O)c1c(O[C@H](C)c2cc(C)cc3c(=O)c(C)c(-c4ccc5nn(C)cc5c4)oc23)ccc(F)c1F [Example 37A, 6-[(1R)-1-[3,6-Dimethyl-2-(2-methylindazol-5-yl)-4-oxo-chromen-8-yl]ethoxy]-2,3-difluoro-N-methoxy-benzamide]	< 100	< 500	–	–
Cc1cc([C@@H](C)Oc2ccc(Cl)nc2-c2noc(=O)[nH]2)c2oc(-c3cnc4ccoc4c3)c(C)c(=O)c2c1 [Example 6C, 3-[6-Chloro-3-[(1R)-1-(2-furo[3,2-b]pyridin-6-yl-3,6-yl)ethoxy]-2-pyridyl]-4H-dimethyl-4-oxo-chromen-8-1,2,4-oxadiazol-5-one]	< 100	–	–	–
Cc1cc([C@@H](C)Oc2ccc(Cl)nc2S(N)(=O)=O)c2oc(-c3cnn(C)n3)c(C)c(=O)c2c1 [Example 35A, 6-Chloro-3-[(1R)-1-[3,6-dimethyl-2-(2-methyltriazol-4-yl)-4-oxo-chromen-8-yl]ethoxy]pyridine-2-sulfonamide]	< 100	–	–	–
Cc1cc([C@@H](C)Oc2ccccc2C(N)=O)c2oc(-c3ccc4nn(C)cc4c3)c(C)c(=O)c2c1 [Example 9A, 2-[(1R)-1-[3,6-Dimethyl-2-(2-methylindazol-5-yl)-4-oxo-chromen-8-yl]ethoxy]benzamide]	< 100	–	–	–

Source: patent US20240182460A1, “ALLOSTERIC CHROMENONE INHIBITORS OF PHOSPHOINOSITIDE 3-KINASE (PI3K) FOR THE TREATMENT OF DISEASE” (PETRA PHARMA CORPORATION, priority 2022, published 2024)
